Target: dipeptidyl peptidase 4 (DPP4) (Homo sapiens, UniProt P27487)
Test: protease activity profiling assay (BPS Bioscience service), […]~[…] compound in […] DMSO
Format: biochemical

dipeptidyl peptidase 4 (DPP4), sequence (P27487 39-766): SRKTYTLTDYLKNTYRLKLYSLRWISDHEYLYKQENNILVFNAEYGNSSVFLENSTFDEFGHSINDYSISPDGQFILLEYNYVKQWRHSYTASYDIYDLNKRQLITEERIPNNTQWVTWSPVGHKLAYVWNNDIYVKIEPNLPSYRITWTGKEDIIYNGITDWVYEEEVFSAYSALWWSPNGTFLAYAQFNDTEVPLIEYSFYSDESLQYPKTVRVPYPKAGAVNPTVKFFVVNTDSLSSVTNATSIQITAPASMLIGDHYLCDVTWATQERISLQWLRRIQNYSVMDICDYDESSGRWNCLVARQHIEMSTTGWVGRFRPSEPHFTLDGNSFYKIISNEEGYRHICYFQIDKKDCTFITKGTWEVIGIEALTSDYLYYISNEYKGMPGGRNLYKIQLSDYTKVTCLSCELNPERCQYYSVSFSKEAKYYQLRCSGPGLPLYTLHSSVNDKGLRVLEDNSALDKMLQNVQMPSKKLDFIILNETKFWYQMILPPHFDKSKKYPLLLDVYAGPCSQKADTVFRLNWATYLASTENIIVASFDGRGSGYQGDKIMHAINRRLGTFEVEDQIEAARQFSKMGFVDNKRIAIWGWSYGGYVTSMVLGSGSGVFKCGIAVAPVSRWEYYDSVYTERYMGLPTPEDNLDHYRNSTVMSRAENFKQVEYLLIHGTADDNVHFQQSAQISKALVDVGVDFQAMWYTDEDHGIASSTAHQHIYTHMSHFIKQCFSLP

## O=C(Nc1cc(C(F)(F)F)cc(C(F)(F)F)c1)c1cc(Cl)ccc1O [IMD-0354, N-(3,5-Bis-trifluoromethylphenyl)-5-chloro-2-hydroxybenzamide]
  IC50: 9.2 µM

From article PMC6620293, “Anti-cancer activity of the novel 2-hydroxydiarylamide derivatives IMD-0354 and KRT1853 through suppression of cancer cell invasion, proliferation, and survival mediated by TMPRSS4” (Scientific Reports, 2019)
